Reference: patent US20240000820A1, “A METHOD OF TREATING FOOT ROT” (Intervet Inc., priority 2020, published 2024)

Assays:
[1] = Health observations and adverse events in the foot rot study; format: in vivo, bovine animals
Method: (§1) Thirty animals were enrolled to the Control Group and another thirty animals were enrolled in the Tildipirosin treated Group. The tildipirosin-treated group received a single dose, subcutaneously, while the control group was treated with a saline sterile solution. Both groups (treated and control) were housed in the same paddocks under typical Brazilian feedlot conditions.

[2] = system: Fusobacterium necrophorum; test: Bacterial evaluation of hoof lesion samples (culture, biochemical tests and PCR) before treatment and on Day 7; format: in vivo; conditions: Day 0 vs Day 7, in comparison to the control group
Method: On Day 0, before treatment, bacteriological samples were collected from the infected hooves of the enrolled cattle. Lesions and lameness were also assessed on Days 2, 4 and 7. Treatment success, improvement, or failure was determined on Day 7 and was based on lameness and lesion score compared to Day 0. On Day 7, another bacteriological sample was collected from all animals. Bacteriological samples were collected on a sterile scraper and on a sterile swab from the border of healthy and necrotic tissue (around the hoof lesion) of the infected hooves of the enrolled cattle. The tip of the scraper, containing discharge from the lesions, was fractured off into 15 ml tubes containing 7 ml of a semi solid transport media formulated exclusively to anaerobic bacteria and the swab was discharged in a semi solid transport. The tubes were kept under refrigeration (4 to 8° C.) until they arrive into the laboratory. At the laboratory, the samples grew in culture media appropriated to F. necrophorum and Dichelobacter nodosus isolation. Isolates were identified using confirmatory biochemical tests and polymerase chain reaction (PCR) specific to F. necrophorum and D. nodosus species.

[3] = system: naturally occurring foot rot; test: Efficacy of a single subcutaneous dose against naturally occurring foot rot in feedlot cattle (lameness and lesion scoring); format: in vivo, bovine animals; conditions: for average lameness score: score guide 1-5 (Table 1); for average lesion score: score guide 1-5 (Table 2)
Method: as §1
Sixty animals were included in the trial in two different phases, according to the number of available animals that fulfill the inclusion criteria. The study was masked. […] The animals were randomized and evenly distributed across the treatment groups according to 15 blocks of 2 animals each in both inclusion dates (there were 2 inclusion dates, for a total of 60 animals).
The effectiveness of tildipirosin for the treatment of foot rot was evaluated by comparing the proportion of treatment success/improvement in the tildipirosin-treated group to the saline-treated control group on Day 7.
The lameness and the lesion scoring are described in Tables 1 and 2 below.
The animals' lesion and lameness score were assessed by the investigator on Days −1 and 0 of the study. To qualify for the effectiveness portion of the study, animals were diagnosed with foot rot by meeting the following criteria: • Lameness Score 3 in at least one foot for 2 consecutive days. • Lesion Score 2 in at least one foot for 2 consecutive days. • Clinically healthy (excepting lameness) • Body weight (348-499 kg body weight) • Age (20-24 months)
On Day 0, before treatment, bacteriological samples were collected from the infected hooves of the enrolled cattle. Lesions and lameness were also assessed on Days 2, 4 and 7. Treatment success, improvement, or failure was determined on Day 7 and was based on lameness and lesion score compared to Day 0. On Day 7, another bacteriological sample was collected from all animals.

[4] = Day 0, before treatment, treated group
[5] = Day 7 after single subcutaneous dose of 4 mg/kg BW

CC[C@H]1OC(=O)C[C@@H](O)[C@H](C)[C@@H](O[C@@H]2O[C@H](C)[C@@H](O)[C@H](N(C)C)[C@H]2O)[C@@H](CCN2CCCCC2)C[C@@H](C)C(=O)/C=C/C(C)=C/[C@@H]1CN1CCCCC1 [tildipirosin, (4R,5S,6S,7R,9R,11E,13E,15R,16R)-6-[(2R,3R,4S,5S,6R)-4-(dimethylamino)-3,5-dihydroxy-6-methyloxan-2-yl]oxy-16-ethyl-4-hydroxy-5,9,13-trimethyl-7-(2-piperidin-1-ylethyl)-15-(piperidin-1-ylmethyl)-1-oxacyclohexadeca-11,13-diene-2,10-dione]
abnormal health observations ([1]; before or after treatment, single subcutaneous dose 4 mg/kg BW): no abnormal health observations
adverse event (broken toenail on Day 7, one animal), relation to treatment ([1]; tildipirosin-treated group, according to the investigator): not related to the tildipirosin treatment
bacterial evaluation (PCR identification of Fusobacterium necrophorum before vs after treatment) [2]: not conclusive
average lameness score [3, 4]: 3.1
average lesion score [3, 4]: 2.3
average lameness score [3, 5]: 1.3
average lesion score [3, 5]: 1.9
treatment of naturally occurring foot rot ([3]; single subcutaneous dose of 4 mg of tildipirosin per kg BW): effectively treat
